What was measured:
[1] = Log P by HPLC on reversed phase columns (EEC directive 79/831 Annex V.A8; methods [a], [b], [c]); type: physicochemical; conditions: reversed phase HPLC column; method [a]: LC-UV, acidic range, 0.1% formic acid in water and acetonitrile as eluent (linear gradient from 10% to 95% acetonitrile)
Procedure, shortened: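 Log P derived from retention times, interpolated linearly between bracketing straight-chain alkan-2-ones (3–16 carbons) of known Log P. Eluents ran acetonitrile 10% to 95% against water with 0.1% formic acid ([a], acidic), 0.001 M ammonium acetate ([b], neutral) or 0.1% phosphoric acid ([c], acidic); UV read-out.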

Puccinia recondita = assay: Example IX-A: in vivo preventive test on Puccinia recondita (brown rust on wheat); conditions: 264 h, compounds of formula IX, 500 ppm of active ingredient, wheat plants, preventive spray, evaluated 11 days after inoculation, read-out: efficacy
Experimental: Example IX-A: In Vivo Preventive Test on Puccinia Recondita (Brown Rust on Wheat)
(§1) The active ingredients are made soluble and homogenized in a mixture of Dimethyl sulfoxide/Acetone/Tween® 80 and then diluted in water to the desired concentration.
(§2) The young plants of wheat are treated by spraying the active ingredient prepared as described above. Control plants are treated only with an aqueous solution of Acetone/Dimethyl sulfoxide/Tween® 80.
After 24 hours, the plants are contaminated by spraying the leaves with an aqueous suspension of Puccinia recondita spores. The contaminated wheat plants are incubated for 24 hours at 20° C. and at 100% relative humidity and then for 10 days at 20° C. and at 70-80% relative humidity.
(§3) The test is evaluated 11 days after the inoculation. 0% means an efficacy which corresponds to that of the control plants while an efficacy of 100% means that no disease is observed.

Septoria tritici = assay: Example IX-B: in vivo preventive test on Septoria tritici (leaf spot on wheat); conditions: Zymoseptoria tritici, 576 h; compounds of formula IX; 500 ppm of active ingredient; wheat plants, preventive spray; evaluated 24 days after inoculation; read-out: efficacy
Experimental: Example IX-B: In Vivo Preventive Test on Septoria Tritici (Leaf Spot on Wheat)
as §1, §2
After 24 hours, the plants are contaminated by spraying the leaves with an aqueous suspension of Septoria tritici spores. The contaminated wheat plants are incubated for 72 hours at 18° C. and at 100% relative humidity and then for 21 days at 20° C. and at 90% relative humidity.
The test is evaluated 24 days after the inoculation. 0% means an efficacy which corresponds to that of the control plants while an efficacy of 100% means that no disease is observed.

Uromyces appendiculatus = assay: Example IX-D: in vivo preventive test on Uromyces appendiculatus (bean rust); conditions: 264 h, compounds of formula IX, 500 ppm of active ingredient, bean plants, preventive spray, evaluated 11 days after inoculation, read-out: efficacy
Experimental: Example IX-D: In Vivo Preventive Test on Uromyces Appendiculatus (Bean Rust)
as §1
The young plants of bean are treated by spraying the active ingredient prepared as described above. Control plants are treated only with an aqueous solution of Acetone/Dimethyl sulfoxide/Tween® 80.
After 24 hours, the plants are contaminated by spraying the leaves with an aqueous suspension of Uromyces appendiculatus spores. The contaminated bean plants are incubated for 24 hours at 20° C. and at 100% relative humidity and then for 10 days at 20° C. and at 70-80% relative humidity.
as §3
control plants while an efficacy of 100% means that no disease was observed.

Sphaerotheca fuliginea = assay: Example IX-C: in vivo preventive test on Sphaerotheca fuliginea (powdery mildew on cucurbits); conditions: Podosphaera fuliginea, 360 h; compounds of formula IX; 500 ppm of active ingredient; gherkin plants, preventive spray; evaluated 15 days after inoculation; read-out: efficacy
Experimental: Example IX-C: In Vivo Preventive Test on Sphaerotheca Fuliginea (Powdery Mildew on Cucurbits)
as §1
The young plants of gherkin are treated by spraying the active ingredient prepared as described above. Control plants are treated only with an aqueous solution of Acetone/Dimethyl sulfoxide/Tween® 80.
After 24 hours, the plants are contaminated by spraying the leaves with an aqueous suspension of Sphaerotheca fuliginea spores. The contaminated gherkin plants are incubated for 72 hours at 18° C. and at 100% relative humidity and then for 12 days at 20° C. and at 70-80% relative humidity.
The test is evaluated 15 days after the inoculation. 0% means an efficacy which corresponds to that of the control plants while an efficacy of 100% means that no disease is observed.

Row | SMILES | chromatographic logP [1] | pest or weed control at 500 ppm (Puccinia recondita) | pest or weed control at 500 ppm (Septoria tritici) | pest or weed control at 500 ppm (Uromyces appendiculatus) | pest or weed control at 500 ppm (Sphaerotheca fuliginea)
1 | CC(=O)c1cncn1CC(=O)c1cnc(Oc2ccc(Cl)cc2)cc1C(F)(F)F [IX-120] | 3.55 | 90 to 100% | 90 to 100% | 80 to 89% | 
2 | N#Cc1cncn1CC(=O)c1ccc(Oc2ccc(Cl)cn2)cc1C(F)(F)F [IX-71] | 3.01 | 90 to 100% | 90 to 100% |  | 90 to 100%
3 | N#Cc1cncn1CC(=O)c1ccc(Oc2ccc(Cl)cn2)cc1Cl [IX-70] | 2.8 | 80 to 89% | 70 to 79% |  | 90 to 100%
4 | O=C(Cn1cncc1F)c1cnc(Oc2ccc(C(F)F)cc2)cc1C(F)(F)F [IX-97] | 2.53 | 80 to 89% | 90 to 100% | 90 to 100% | 
5 | N#Cc1cncn1CC(=O)c1ccc(Oc2ccc(C(F)(F)F)nc2)nc1C(F)(F)F [IX-131] | 2.92 | 80 to 89% | 90 to 100% |  | 90 to 100%
6 | O=C(Cn1cncc1Cl)c1ccc(Oc2ccc(Cl)cc2)nc1C(F)(F)F [IX-52] | 3 | 90 to 100% | 90 to 100% |  | 70 to 79%
7 | N#Cc1cncn1CC(=O)c1ccc(Cl)cc1 [IX-90] | 2.04 | 80 to 89% | 90 to 100% |  | 80 to 89%
8 | N#Cc1cncn1CC(=O)c1ccc(Oc2ccc(Br)cc2)nc1C(F)(F)F [IX-118] | 3.39 |  | 90 to 100% | 80 to 89% | 90 to 100%
9 | O=C(Cn1cncc1Cl)c1ccc(Oc2ccc(Cl)nc2)cc1Cl [IX-44] | 2.2 | 80 to 89% | 90 to 100% |  | 90 to 100%
10 | N#Cc1cncn1CC(=O)c1ccc(Oc2ccc(OC(F)(F)F)cc2)nc1C(F)(F)F [IX-129] | 3.32 | 90 to 100% | 90 to 100% |  | 90 to 100%
11 | N#Cc1cncn1CC(=O)c1ccc(Oc2ccc(C(F)(F)F)cc2)nc1C(F)(F)F [IX-137] | 3.35 | 90 to 100% | 90 to 100% |  | 90 to 100%
12 | O=C(Cn1cncc1C(F)(F)F)c1ccc(Oc2ccc(I)cc2)cc1F [IX-49] | 4.16 | 80 to 89% | 90 to 100% |  | 
13 | N#Cc1cncn1CC(=O)c1ccc(Oc2ccc(Br)nc2)nc1C(F)(F)F [IX-144] | 2.68 | 70 to 79% | 90 to 100% |  | 90 to 100%
14 | N#Cc1cncn1CC(=O)c1ccc(Oc2ccc(Cl)cc2F)nc1C(F)(F)F [IX-128] | 3.14 | 70 to 79% | 90 to 100% |  | 90 to 100%
15 | N#Cc1cncn1CC(=O)c1ccc(Cl)cc1Cl [IX-99] | 2.34 | 70 to 79% | 90 to 100% |  | 90 to 100%
16 | N#Cc1cncn1CC(=O)c1ccc(Oc2ccc(Cl)nc2)nc1C(F)(F)F [IX-140] | 2.55 |  | 90 to 100% |  | 90 to 100%
17 | O=C(Cn1cncc1Cl)c1ccc(Oc2ccc(Cl)nc2)cc1C(F)(F)F [IX-28] | 2.45 | 80 to 89% | 90 to 100% |  | 90 to 100%
18 | O=C(Cn1cncc1Br)c1ccc(Cl)cc1Cl [IX-20] | 1.94 |  | 90 to 100% |  | 90 to 100%

Row | SMILES | chromatographic logP [1] | pest or weed control at 500 ppm (Puccinia recondita) | pest or weed control at 500 ppm (Septoria tritici) | pest or weed control at 500 ppm (Uromyces appendiculatus) | pest or weed control at 500 ppm (Sphaerotheca fuliginea)
19 | O=C(Cn1cncc1Br)c1ccc(Oc2ccc(S(F)(F)(F)(F)F)cc2)nc1Cl [IX-26] | 3.23 | 80 to 89% | 80 to 89% |  | 90 to 100%
20 | O=C(Cn1cncc1Cl)c1ccc(Oc2ccc(Cl)cn2)cc1C(F)(F)F [IX-72] | 2.75 | 80 to 89% | 90 to 100% |  | 70 to 79%
21 | O=C(Cn1cncc1Br)c1ccc(Oc2ccc(Cl)nc2)cc1Cl [IX-56] | 2.25 | 80 to 89% | 90 to 100% |  | 
22 | O=C(Cn1cncc1Br)c1ccc(Oc2ccc(Cl)cn2)cc1Cl [IX-55] | 2.52 | 80 to 89% | 90 to 100% |  | 90 to 100%
23 | O=C(Cn1cncc1Cl)c1ccc(Oc2ccc(C(F)(F)F)cc2)cc1 [IX-17] | 2.84 | 80 to 89% | 90 to 100% |  | 90 to 100%
24 | N#Cc1cncn1CC(=O)c1cnc(Oc2ccc(Cl)cc2F)cc1C(F)(F)F [IX-96] | 3.46 | 80 to 89% | 90 to 100% |  | 90 to 100%
25 | N#Cc1cncn1CC(=O)c1ccc(Oc2ccc(C(F)F)cc2)nc1C(F)(F)F [IX-132] | 2.8 | 90 to 100% | 90 to 100% |  | 90 to 100%
26 | N#Cc1cncn1CC(=O)c1ccccc1Cl [IX-126] | 1.81 |  | 80 to 89% |  | 70 to 79%
27 | O=C(Cn1cncc1Br)c1ccc(Oc2ccc(Cl)cc2)cc1C(F)(F)F [IX-41] | 3.35 | 80 to 89% | 90 to 100% |  | 
28 | CC(=O)c1cncn1CC(=O)c1cnc(Oc2ccc(C(F)F)cc2)cc1C(F)(F)F [IX-103] | 2.71 |  | 90 to 100% |  | 90 to 100%
29 | CC(=O)c1cncn1CC(=O)c1ccc(Oc2ccc(Br)cc2)nc1C(F)(F)F [IX-122] | 3.31 |  | 90 to 100% |  | 90 to 100%
30 | O=C(Cn1cncc1Cl)c1ccc(Oc2ccc(Cl)cc2)cc1 [IX-21] | 2.63 | 80 to 89% | 90 to 100% |  | 90 to 100%
31 | O=C(Cn1cncc1Br)c1ccc(Oc2ccc(C(F)(F)F)cc2)cc1C(F)(F)F [IX-51] | 3.51 | 80 to 89% | 90 to 100% |  | 90 to 100%
32 | N#Cc1cncn1CC(=O)c1ccc(OC(F)(F)F)cc1 [IX-116] | 2.12 |  | 80 to 89% |  | 80 to 89%
33 | O=C(Cn1cncc1Cl)c1ccc(Cl)cc1Cl [IX-19] | 1.94 |  | 90 to 100% |  | 90 to 100%
34 | O=C(Cn1cncc1Br)c1ccc(Oc2ccc(Cl)cc2)cc1 [IX-22] | 2.63 | 80 to 89% | 90 to 100% |  | 90 to 100%
35 | N#Cc1cncn1CC(=O)c1ccc(F)cc1 [IX-100, 3-[2-(4-fluorophenyl)-2-oxo-ethyl]imidazole-4-carbonitrile] | 1.58 |  | 90 to 100% |  | 90 to 100%
36 | N#Cc1cncn1CC(=O)c1cnc(Oc2ccc(Br)nc2)cc1C(F)(F)F [IX-143] | 2.71 | 80 to 89% | 90 to 100% |  | 90 to 100%

— patent US20200031778A1, “NOVEL 5-SUBSTITUTED IMIDAZOLYLMETHYL DERIVATIVES” (Bayer CropScience Aktiengesellschaft, priority 2016, published 2020)
